In patent US12605439B2 (priority 2017, dated 2026):

Columns and labels:
LK^b cells = type: cell-based
SIIN specific T cell = type: cell-based

Substance: QLE SIINFEKL TEW (QLESIINFEKLTEW; OVA peptide used in the Examples) [Ext SIIN, extended model ovalbumin peptide with three flanking residues at both termini]
- presentation of CD8 epitope compared to free peptide loading (LK^b cells): lower
- activation of T cells compared to free peptide (SIIN specific T cell): equivalent
